Laboratory results taken from ChEMBL document CHEMBL5131492, “Harringtonine Ester Derivatives with Enhanced Antiproliferative Activities against HL-60 and HeLa Cells” (J Nat Prod, 2022).

Key:
[1] = system: HL-60; assay: Antiproliferative activity against human HL-60 cells assessed as inhibition of cell growth measured after 68 hrs by MTS assay; type: functional, cell-based; details: HL-60, 68 h
[2] = system: HeLa; assay: Antiproliferative activity against human HeLa cells assessed as inhibition of cell growth measured after 68 hrs by MTS assay; type: functional, cell-based

Row | Compound | IC50 [1] [nM] | IC50 [2] [nM]
1 | COC1=C[C@]23CCCN2CCc2cc4c(cc2[C@@H]3[C@@H]1OC(=O)[C@@](O)(CCC(C)(C)O)CC(=O)O)OCO4 | > 100000 | > 100000
2 | COC1=C[C@]23CCCN2CCc2cc4c(cc2[C@@H]3[C@@H]1OC(=O)[C@@](O)(CCC(C)(C)O)CC(=O)OCC(C)C)OCO4 | 119 | 23800
3 | CCCCCOC(=O)C[C@](O)(CCC(C)(C)O)C(=O)O[C@@H]1C(OC)=C[C@]23CCCN2CCc2cc4c(cc2[C@H]13)OCO4 | 22.7 | 6000
4 | CCCCCCCCOC(=O)C[C@](O)(CCC(C)(C)O)C(=O)O[C@@H]1C(OC)=C[C@]23CCCN2CCc2cc4c(cc2[C@H]13)OCO4 | 11.8 | 2000
5 | COC1=C[C@]23CCCN2CCc2cc4c(cc2[C@@H]3[C@@H]1OC(=O)[C@@](O)(CCC(C)(C)O)CC(=O)OC(C)C)OCO4 | 583 | 60600
6 | CCCCOC(=O)C[C@](O)(CCC(C)(C)O)C(=O)O[C@@H]1C(OC)=C[C@]23CCCN2CCc2cc4c(cc2[C@H]13)OCO4 | 42.4 | 10800
7 | CCCCCCCOC(=O)C[C@](O)(CCC(C)(C)O)C(=O)O[C@@H]1C(OC)=C[C@]23CCCN2CCc2cc4c(cc2[C@H]13)OCO4 | 9.4 | 400
8 | CCOC(=O)C[C@](O)(CCC(C)(C)O)C(=O)O[C@@H]1C(OC)=C[C@]23CCCN2CCc2cc4c(cc2[C@H]13)OCO4 | 186 | 24200
9 | CCCCCCOC(=O)C[C@](O)(CCC(C)(C)O)C(=O)O[C@@H]1C(OC)=C[C@]23CCCN2CCc2cc4c(cc2[C@H]13)OCO4 | 9.6 | 1900
10 | COC1=C[C@]23CCCN2CCc2cc4c(cc2[C@@H]3[C@@H]1OC(=O)[C@@](O)(CCC(C)(C)O)CC(=O)OC(C)(C)C)OCO4 | 6200 | > 100000
11 | CCCOC(=O)C[C@](O)(CCC(C)(C)O)C(=O)O[C@@H]1C(OC)=C[C@]23CCCN2CCc2cc4c(cc2[C@H]13)OCO4 | 104 | 15800
12 | CCC(C)OC(=O)C[C@](O)(CCC(C)(C)O)C(=O)O[C@@H]1C(OC)=C[C@]23CCCN2CCc2cc4c(cc2[C@H]13)OCO4 (mixture of isomers) | 499 | 97900
13 | COC(=O)C[C@](O)(CCC(C)(C)O)C(=O)O[C@@H]1C(OC)=C[C@]23CCCN2CCc2cc4c(cc2[C@H]13)OCO4 [HARRINGTONINE] | 50.5 | 4000
14 | COC(=O)C[C@](O)(CCCC(C)(C)O)C(=O)O[C@@H]1C(OC)=C[C@]23CCCN2CCc2cc4c(cc2[C@H]13)OCO4 [OMACETAXINE MEPESUCCINATE] | – | 1700
